Assay results taken from publication PMC7413516, “Antidepressant-like activity and safety profile evaluation of 1H-imidazo[2,1-f]purine-2,4(3H,8H)-dione derivatives as 5-HT1A receptor partial agonists” (PLoS ONE, 2020).
Several values for one entry are separate records, joined by “and”; a condition that tells them apart may be missing. Equal entries are not always repeated. Entries after “also recorded” stand apart in the source; their conditions may differ.

Assays:
normotensive rats = assay: Blood pressure measurement in normotensive anesthetized rats; format: in vivo, Wistar rats; conditions: for DBP Mean / SBP Mean / DBP (individual animals) / SBP (individual animals): 10 mg/kg i.p.
Method: Male Wistar normotensive rats were anesthetized with thiopental (50–75 mg/kg, i.p.). The right carotid artery was cannulated with a polyethylene tube filled with heparin in saline to facilitate pressure measurement using the Datamax apparatus (Columbus Instruments, Columbus, Ohio, USA). The studied compounds were administered after a 15-min stabilization period.

mice = assay: Spontaneous activity monitoring (RFID TraffiCage, 18 h); format: in vivo, Swiss albino mice; conditions: for Mean counts, spontaneous activity: 0.625 mg/kg
Method: (§1) The Swiss albino mice were used in the experiment. AZ-853 and AZ-861 were injected once daily for 16 consecutive days. On the 1st and 15th day the administration of the compounds, 18-h spontaneous animal activity was registered (see below). FST, as described earlier, was performed on the 14th day just before the next treatment. To ensure that the effects observed in FST are not the result of increased motility of animals, on the 13th day, just before the next administration, the locomotor activity was measured as described earlier, from 2 to 6 min after test start, i.e. in the period identical to the duration of FST. Blood and organ collection was performed on the 17th day at 24 h after the last dose and fasting.
The spontaneous activity of the mice was measured on the 1st and 15th day of the treatment with a special, innovative radiofrequency identification system (RFID-system)—TraffiCage (TSE-Systems, Germany). The test was conducted according to the method described in the literature. The animals had the transmitter (RFID) subcutaneously implanted, which tracked the time they spent in different areas of the cage. The data obtained were then grouped in a special computer program.

[1] = Liver, kidney and heart weight after repeated administration; format: in vivo, Swiss albino mice; conditions: mice, AZ-853 0.625 mg/kg, AZ-861 1.25 mg/kg
Method: as §1
The body weight was measured daily immediately prior to administration of the drugs. On the 17th day, the blood was collected from the Swiss albino mice sacrificed by decapitation 20 min after i.p. administration of heparin (2500 units/mouse) and then centrifuged at 600 × g (15 min, 4°C) to separate plasma. The liver, heart, and kidney were also collected and weighed.

[2] = molecular target: serotonergic 5-HT1A receptor (5-HT1AR); parameters: method as in PMID 27353547; conditions: ref [8]; cited from earlier work
human 5-HT1AR = molecular target: T1, human 5-HT1AR (Homo sapiens, UniProt P08908); assay: β-Arrestin recruitment (Tango LiveBLAzer, HTR1A-bla U2OS cells)
T1 sequence (P08908 1-422): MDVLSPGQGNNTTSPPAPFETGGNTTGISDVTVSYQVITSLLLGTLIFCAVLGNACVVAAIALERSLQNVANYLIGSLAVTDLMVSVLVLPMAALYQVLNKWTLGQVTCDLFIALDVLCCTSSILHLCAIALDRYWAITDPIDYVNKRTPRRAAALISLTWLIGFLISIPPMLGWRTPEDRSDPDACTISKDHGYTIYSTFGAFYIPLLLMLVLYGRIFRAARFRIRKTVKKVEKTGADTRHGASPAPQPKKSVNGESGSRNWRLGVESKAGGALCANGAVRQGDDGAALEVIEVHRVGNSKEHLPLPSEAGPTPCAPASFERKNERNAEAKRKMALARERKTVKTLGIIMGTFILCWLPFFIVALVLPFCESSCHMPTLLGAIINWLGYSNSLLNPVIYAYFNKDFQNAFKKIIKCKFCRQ
Method: Cells were cultured according to manufacturer’s instruction. […] This parental cell line stably expresses a beta-arrestin/TEV protease fusion protein and the beta-lactamase reporter gene under the control of a UAS response element. The Tango™ HTR1A-bla U2OS cells have been functionally validated for a response to 5-CT. This cell line tested negative for mycoplasma.
The HTR1A-bla U2OS receptor cells containing the human 5-HT1AR linked to a TEV protease site and a Gal4-VP16 transcription factor were tested for recruitment of β-arrestin. […] The recruitment of β-arrestin were tested using the Tango LiveBLAzer assay kit according to the manufacturer’s instruction (Life Technologies). The assay plate was measured in FLUOstar Optima, a multifunction plate reader (BMG Lab Tech).

[3] = time 0 min (baseline), 10 mg/kg
[4] = 18-h monitoring, AZ-853 0.625, AZ-861 1.25 mg/kg b.w./day

## Cn1c(=O)c2c(nc3n(CCCCN4CCN(c5ccccc5F)CC4)ccn23)n(C)c1=O [AZ-853, 8-(4-(4-(2-fluorophenyl)piperazin-1-yl)butyl)-1,3-dimethyl-1H-imidazo[2,1-f]purine-2,4(3H,8H)-dione]
Normotensive rats; 10 mg/kg
  effect on systolic blood pressure: did not significantly affect the systolic blood pressure
  reduction of diastolic blood pressure in relation to the baseline value: 13–15%
Normotensive rats; 5 min
  DBP Mean: 88.3 mmHg
  SBP Mean: 131.2 mmHg
Normotensive rats; 5 min, 10 mg/kg
  DBP (individual animals): 85 mmHg and 88 mmHg and 83 mmHg and 95 mmHg and 91 mmHg
  SBP (individual animals): 143 mmHg and 116 mmHg and 120 mmHg and 123 mmHg and 163 mmHg and 122 mmHg
Normotensive rats; 10 min
  DBP Mean: 84.8 mmHg
  SBP Mean: 130.0 mmHg
Normotensive rats; 10 min, 10 mg/kg
  DBP (individual animals): 82 mmHg and 81 mmHg and 85 mmHg and 91 mmHg and 84 mmHg and 86 mmHg
  SBP (individual animals): 144 mmHg and 112 mmHg and 127 mmHg and 119 mmHg and 162 mmHg and 116 mmHg
Normotensive rats; 15 min
  DBP Mean: 83.2 mmHg
  SBP Mean: 128.5 mmHg
Normotensive rats; 15 min, 10 mg/kg
  DBP (individual animals): 80 mmHg and 81 mmHg and 84 mmHg and 88 mmHg and 82 mmHg
  SBP (individual animals): 140 mmHg and 113 mmHg and 130 mmHg and 116 mmHg and 160 mmHg and 112 mmHg
Normotensive rats; 20 min
  DBP Mean: 83.0 mmHg
  SBP Mean: 125.5 mmHg
Normotensive rats; 20 min, 10 mg/kg
  DBP (individual animals): 75 mmHg and 76 mmHg and 85 mmHg and 88 mmHg and 86 mmHg
  SBP (individual animals): 132 mmHg and 110 mmHg and 128 mmHg and 113 mmHg and 161 mmHg
Normotensive rats; 30 min
  DBP Mean: 83.2 mmHg
  SBP Mean: 122.8 mmHg
Normotensive rats; 30 min, 10 mg/kg
  DBP (individual animals): 80 mmHg and 76 mmHg and 84 mmHg and 87 mmHg and 86 mmHg and 85 mmHg
  SBP (individual animals): 136 mmHg and 109 mmHg and 126 mmHg and 110 mmHg and 160 mmHg and 112 mmHg
Normotensive rats; 40 min
  DBP Mean: 82.5 mmHg
  SBP Mean: 126.2 mmHg
Normotensive rats; 40 min, 10 mg/kg
  DBP (individual animals): 80 mmHg and 76 mmHg and 86 mmHg and 88 mmHg and 83 mmHg
  SBP (individual animals): 138 mmHg and 110 mmHg and 125 mmHg and 111 mmHg and 159 mmHg
Normotensive rats; 50 min
  DBP Mean: 83.2 mmHg
  SBP Mean: 125.7 mmHg
Normotensive rats; 50 min, 10 mg/kg
  DBP (individual animals): 83 mmHg and 82 mmHg and 84 mmHg and 86 mmHg and 97 mmHg and 85 mmHg
  SBP (individual animals): 139 mmHg and 113 mmHg and 119 mmHg and 167 mmHg and 111 mmHg
Normotensive rats; 60 min
  DBP Mean: 86.2 mmHg
  SBP Mean: 127.0 mmHg
Normotensive rats; 60 min, 10 mg/kg
  DBP (individual animals): 84 mmHg and 80 mmHg and 83 mmHg and 86 mmHg and 82 mmHg
  SBP (individual animals): 136 mmHg and 111 mmHg and 116 mmHg and 110 mmHg and 157 mmHg and 107 mmHg
Normotensive rats; 70 min
  DBP Mean: 84.7 mmHg
  SBP Mean: 125.3 mmHg
Normotensive rats; 70 min, 10 mg/kg
  DBP (individual animals): 84 mmHg and 85 mmHg and 89 mmHg and 82 mmHg
  SBP (individual animals): 138 mmHg and 116 mmHg and 120 mmHg and 111 mmHg and 160 mmHg and 107 mmHg
Normotensive rats; 80 min
  DBP Mean: 83.2 mmHg
  SBP Mean: 123.2 mmHg
Normotensive rats; 80 min, 10 mg/kg
  DBP (individual animals): 85 mmHg and 80 mmHg and 82 mmHg and 89 mmHg and 81 mmHg
  SBP (individual animals): 137 mmHg and 112 mmHg and 115 mmHg and 108 mmHg and 160 mmHg and 107 mmHg
Normotensive rats; time 0 min (baseline)
  DBP Mean: 97.2 mmHg
  SBP Mean: 131.0 mmHg
Normotensive rats; [3]
  DBP (individual animals): 97 mmHg and 98 mmHg and 91 mmHg and 84 mmHg and 100 mmHg and 113 mmHg
  SBP (individual animals): 129 mmHg and 140 mmHg and 120 mmHg and 119 mmHg and 122 mmHg and 156 mmHg
mice; [4]
  spontaneous activity after the 1st administration vs. control: increased spontaneous activity in the 1st, 7th, 12th and 13th hour
  spontaneous activity after the 15th administration vs. control: significant increase in activity was observed only in the 1st hour; also recorded: in the 4th, 7th and 9th hour after administration, a significant reduction in spontaneous activity
mice; after 1st administration, 1 h after administration
  Mean counts, spontaneous activity: 422.3 counts
mice; after 1st administration, 2 h after administration
  Mean counts, spontaneous activity: 229.6 counts
mice; after 1st administration, 3 h after administration
  Mean counts, spontaneous activity: 213.6 counts
mice; after 1st administration, 4 h after administration
  Mean counts, spontaneous activity: 200.4 counts
mice; after 1st administration, 5 h after administration
  Mean counts, spontaneous activity: 179.9 counts
mice; after 1st administration, 6 h after administration
  Mean counts, spontaneous activity: 236.7 counts
mice; after 1st administration, 7 h after administration
  Mean counts, spontaneous activity: 254.4 counts
mice; after 1st administration, 8 h after administration
  Mean counts, spontaneous activity: 265.9 counts
mice; after 1st administration, 9 h after administration
  Mean counts, spontaneous activity: 189.1 counts
mice; after 1st administration, 10 h after administration
  Mean counts, spontaneous activity: 250.4 counts
mice; after 1st administration, 11 h after administration
  Mean counts, spontaneous activity: 226.9 counts
mice; after 1st administration, 12 h after administration
  Mean counts, spontaneous activity: 397.9 counts
mice; after 1st administration, 13 h after administration
  Mean counts, spontaneous activity: 346.3 counts
mice; after 1st administration, 14 h after administration
  Mean counts, spontaneous activity: 365.0 counts
mice; after 1st administration, 15 h after administration
  Mean counts, spontaneous activity: 380.1 counts
mice; after 1st administration, 16 h after administration
  Mean counts, spontaneous activity: 407.7 counts
mice; after 1st administration, 17 h after administration
  Mean counts, spontaneous activity: 351.3 counts
mice; after 1st administration, 18 h after administration
  Mean counts, spontaneous activity: 351.3 counts
mice; after 15th administration, 1 h after administration
  Mean counts, spontaneous activity: 324.3 counts
mice; after 15th administration, 2 h after administration
  Mean counts, spontaneous activity: 152.7 counts
mice; after 15th administration, 3 h after administration
  Mean counts, spontaneous activity: 148.6 counts
mice; after 15th administration, 4 h after administration
  Mean counts, spontaneous activity: 120.0 counts
mice; after 15th administration, 5 h after administration
  Mean counts, spontaneous activity: 166.6 counts
mice; after 15th administration, 6 h after administration
  Mean counts, spontaneous activity: 110.9 counts
mice; after 15th administration, 7 h after administration
  Mean counts, spontaneous activity: 134.7 counts
mice; after 15th administration, 8 h after administration
  Mean counts, spontaneous activity: 144.6 counts
mice; after 15th administration, 9 h after administration
  Mean counts, spontaneous activity: 138.1 counts
mice; after 15th administration, 10 h after administration
  Mean counts, spontaneous activity: 272.4 counts
mice; after 15th administration, 11 h after administration
  Mean counts, spontaneous activity: 256.9 counts
mice; after 15th administration, 12 h after administration
  Mean counts, spontaneous activity: 347.2 counts
mice; after 15th administration, 13 h after administration
  Mean counts, spontaneous activity: 396.8 counts
mice; after 15th administration, 14 h after administration
  Mean counts, spontaneous activity: 307.7 counts
mice; after 15th administration, 15 h after administration
  Mean counts, spontaneous activity: 281.8 counts
mice; after 15th administration, 16 h after administration
  Mean counts, spontaneous activity: 249.2 counts
mice; after 15th administration, 17 h after administration
  Mean counts, spontaneous activity: 304.0 counts
mice; after 15th administration, 18 h after administration
  Mean counts, spontaneous activity: 356.3 counts
[1]
  effect on liver, kidney and heart weight (% of total body weight): neither AZ-853 (0.625 mg/kg) nor AZ-861 (1.25 mg/kg) influenced
[2]
  Ki: 0.6 nM
Human 5-HT1AR
  EC50: 4.17 nM
Human 5-HT1AR; U2OS, read-out: Emax (%) ± SEM, agonist mode
  Emax: 93 ± 1.7%
Human 5-HT1AR; β-arrestin recruitment
  increased potency as compared to 5-HT: 95 fold
